Results published in patent publication US8114862B2, “TGR5 modulators and methods of use thereof” (Intercept Pharmaceuticals, Inc., priority 2008, dated 2012).
“And” between values parts separate entries of the source, which are not always exact repeats. Identical values can stand only once.

Legend:
TGR5+/+ and TGR5-/- mice = assay: Plasma GLP-1 after oral glucose challenge in TGR5+/+ and TGR5-/- mice; type: in vivo, mouse; settings: for GLP-1 release after a glucose challenge: TGR5+/+ mice
Method: Animals were housed and bred according to standardized procedures (Argmann and Auwerx, 2006b). Age-matched male mice were used for all experiments. Genetically engineered mouse models (GEMMs), i.e., TGR5-Tg and TGR5^−/− mice, were generated as described in the Supplemental Data. […]; Research Diets) for at least 8 weeks, as mentioned in the text and figure legends. […] Mouse phenotyping experiments were performed according to EMPRESS protocols (see, for example, Empress (European Mouse Phenotyping Resource of Standardised Screening) website) and were aimed to assess food and water intake, body composition (Argmann et al., 2006a, Curr. Protoc. Mol. Biol. Chapter 29, Unit 29A, 23), energy expenditure (Argmann et al., 2006a, Curr. Protoc. Mol. Biol. Chapter 29, Unit 29A, 23), glucose and lipid homeostasis (Argmann et al., 2006b, Curr. Protoc. Mol. Biol. Chapter 29, Unit 29A, 22); Heikkinen et al., 2007, Curr. Protoc. Mol. Chapter. 29, Unit 29B, 23; Mataki et al., 2007, Mol. Cell. Biol. 27, 8330), and plasma biochemistry (Argmann and Auwerx, 2006a, Curr. Protoc. Mol. Biol. Chapter 29, Unit 29A, 22). Tissues and blood were collected and processed for histopathology, blood chemistry, and gene expression according to standardized procedures (Argmann and Auwerx, 2006a; Feige et al., 2008b; Mark et al., 2007; Watanabe et al., 2006). Hyperinsulinemic euglycemic clamp studies were performed as described (Feige et al., 2008b), with minor modifications including a change in the initial insulin bolus (30 mU/kg) and insulin infusion rate (10 mU/min/kg). Plasma GLP-1 levels were measured by ELISA (Millipore) on blood collected by retro-orbital puncture. […].
To further establish a role of TGR5 signaling in the maintenance of glucose homeostasis, we assessed the glucose tolerance of germline TGR5-deficient mice (TGR5^−/−), generated by breeding mice in which the TGR5 allele was floxed with CMV-Cre transgenic mice. […].

primary brown adipocytes = assay: O2 consumption in primary brown adipocytes; type: cell-based, mouse; settings: treated for 12 hr, 3 μM
[1] = Octanol/water partition coefficient (shake-flask); type: physicochemical; settings: pH 8
Method: Since the sulphate and sulphonated analogues are always ionised at all pH values the octanol/water partition coefficient was measured for all molecules in ionized form and therefore the carboxy analogues were studied at high pH. 1-Octanol/water partition coefficient (log P) was evaluated using a conventional shake-flask procedure. […] The aqueous buffer was previously pre-saturated with 1-octanol, 5 ml of 1-octanol pre-saturated with water was then added and the samples were left to equilibrate for 2 weeks under continuous stirring at room temperature After centrifugation the two phases were carefully separated. […] The mass spectrometry acquisition was performed in the multiple reaction monitoring mode using the ESI source in negative ionization.

intestinal bacteria = assay: Metabolic stability in human stool culture (7α-dehydroxylation); type: in vitro ADME
Method: Homogenized fresh human stools (500 mg) were transferred into sterile vials to which 5 mL of sterilized chopped meat-glucose medium (Scott Lab., Fiskville, R.I.) was added. BA was then added at a final concentration of 0.05 mM. […] The samples were centrifuged at 3500 rpm for 10 min; from the supernatant the BA were isolated by C-18 solid-phase extraction and analyzed by TLC and HPLC-ES-MS/MS.
Thin-layer chromatography (TLC), utilizing silica gel 0.25 mm thickness plates (Merck, Darmstat, Germany), was employed as the first screening test. The solvent system used for the separation of conjugated BA was composed of propionic acid/isoamyl acetate/water/N-propanol (3:4:1:2, v/v/v/v; solvent I), and that of the unconjugated BA was acetic acid/carbon tetrachloride/isopropyl ether/isoamyl acetate/water/N-propanol/benzene (1:4:6:8:2:2, v/v/v/v/v/v; solvent II).

VDR = biological target: T1, VDR (Homo sapiens, UniProt P11473); assay: VDR coactivator recruitment assay
T1 sequence (P11473 127-423 limits assumed): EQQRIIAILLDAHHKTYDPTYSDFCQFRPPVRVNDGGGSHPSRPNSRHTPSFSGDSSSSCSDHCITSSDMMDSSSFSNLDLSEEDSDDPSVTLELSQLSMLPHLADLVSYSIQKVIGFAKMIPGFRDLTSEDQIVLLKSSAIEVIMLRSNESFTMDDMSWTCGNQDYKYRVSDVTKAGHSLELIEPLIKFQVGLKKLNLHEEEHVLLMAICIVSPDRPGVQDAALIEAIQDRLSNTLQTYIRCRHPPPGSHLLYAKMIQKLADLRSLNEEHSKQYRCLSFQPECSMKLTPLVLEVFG
Method: Lanthascreen assay (Invitrogen) was used for nulear receptor selectivity assay. The kit uses a terbium-labeled anti-GST antibody, a fluorescein-labeled coactivator peptide, and a NR ligand-binding domain that is tagged with glutathione-S-transferase (GST) in a homogenous mix-and-read assay format. […] Following 1 hour incubation in the dark, TR-FRET measurements were made in the Envision. […] The data was analyzed using GraphPad Prism using the sigmoidal curve equation with variable slope to obtain EC50 values.

bovine serum albumin = bovine serum albumin (Bos taurus, UniProt P02769); assay: Albumin binding by equilibrium dialysis; type: in vitro ADME; settings: 100 μM BA in 5% bovine serum albumin-saline, pH 7.2
Sequence of bovine serum albumin (P02769 25-607): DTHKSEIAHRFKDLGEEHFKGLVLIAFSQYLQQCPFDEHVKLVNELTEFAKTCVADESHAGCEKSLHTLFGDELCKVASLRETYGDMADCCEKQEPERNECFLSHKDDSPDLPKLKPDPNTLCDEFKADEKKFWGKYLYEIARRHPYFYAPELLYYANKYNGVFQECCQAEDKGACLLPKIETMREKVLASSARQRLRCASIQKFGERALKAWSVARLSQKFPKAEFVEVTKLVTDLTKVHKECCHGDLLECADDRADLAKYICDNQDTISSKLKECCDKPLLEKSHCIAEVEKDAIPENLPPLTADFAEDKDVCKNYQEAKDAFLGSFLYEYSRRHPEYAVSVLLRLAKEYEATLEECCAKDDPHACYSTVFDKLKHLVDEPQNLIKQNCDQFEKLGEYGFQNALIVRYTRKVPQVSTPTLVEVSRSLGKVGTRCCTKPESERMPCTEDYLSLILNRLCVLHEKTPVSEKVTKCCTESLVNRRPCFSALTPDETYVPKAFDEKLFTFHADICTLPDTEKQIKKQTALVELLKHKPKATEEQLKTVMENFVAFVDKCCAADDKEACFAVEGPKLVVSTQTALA
Method: The extent of albumin binding was evaluated by equilibrium dialysis at a fixed BA-albumin ratio. BA was dissolved at a concentration of 100 μM in 5% bovine serum albumin-saline solution (pH 7.2) and left to stand for 24 h at 25° C. Two milliliters of this solution was dialyzed in cellulose sacs having a molecular weight cut-off of 12-14,000 against 25 ml of saline solution. The system was equilibrated by mechanical gently shaking for 72 h at 25° C. BA concentrations of the dialyzed solution (corresponding to the free unbound fraction) and of the starting solution were determined with HPLC-ESI-MS/MS in the same conditions of the previous analysis.
The percent of albumin binding was calculate from the initial BA concentration and from the unbound concentration in the dialyzed fraction.

[2] = test system: Diet-Induced Obesity Mouse Model; assay: Diet-induced obesity mouse model (Example 9); type: in vivo
[3] = Critical micellar concentration by surface tension; type: physicochemical; settings: […] NaCl water solution
Method: The critical micellar concentration (CMC) was determined by surface tension (ST) measurements using a maximum bubble-pressure method which give surface tension values […] by potential impurities like static methods are. The tensiometer was a […] Research Corp., Milwaukee, Wis.) equipped with two glass probes of 0.5 and 4.0 mm diameters connected to a source of nitrogen. […] The surface tension values were plotted against the logarithm of the bile salt concentration; the regression lines corresponding to the two parts of the curve (monomeric and micellar phases) were calculated using the method of least squares, and the intersection of the lines was taken as the CMC value. From the ST vs concentration curves the value of the surface tension at the CMC (equilibrium between monomers and multimers species) was also calculated giving information about the detergency power which is related to the size of the micelles with associate surface tension lowering capacity. The CMC was evaluated by surface tension measurements in non equilibrium conditions i.e. in conditions that impurities slightly affect the surface tension results (FIG. 10).

NCI-H716 cells = assay: NCI-H716 cell experiments (ATP, intracellular calcium, GLP-1 release); type: cell-based, human

## CC[C@H]1[C@@H](O)[C@@H]2[C@H](C[C@H](O)[C@]3(C)[C@@H]([C@H](C)C[C@H](C)C(=O)O)CC[C@@H]23)[C@@]2(C)CC[C@@H](O)C[C@@H]12 [Ih3e, 6α-ethyl-(23S)-methyl-3α,7α,12α trihydroxy-5β-cholan-24-oic acid]
TGR5+/+ and TGR5-/- mice; DPP4 inhibitor sitagliptin coadministered
  GLP-1 release after a glucose challenge: markedly more pronounced
TGR5+/+ and TGR5-/- mice; preadministration 30 mg/kg oral
  GLP-1 release after a glucose challenge: moderately increased GLP-1 release
TGR5+/+ and TGR5-/- mice; TGR5-/- mice
  effects on plasma GLP-1 levels: blunted
Primary brown adipocytes
  O2 consumption after FCCP: significantly more pronounced
[1]
  LogPA- (1-octanol-water partition coefficient, ionized species): 1.4 and 1.44
Intestinal bacteria
  7-dehydroxylation and intermediate formation of a 7-oxo derivative: practically abolished
  side chain stability to intestinal bacteria enzymatic activities: not modified
Intestinal bacteria; after 24 hour incubation
  compound recovered unmodified: more than 85%
Intestinal bacteria; human, 12 h, 0.05 mM
  compound unmodified: more than 95%
VDR
  VDR Activation EC50: No activity
Bovine serum albumin
  Albumin Binding: 62%
[2]; after 10 weeks, chow fed and high fat fed mice vs vehicle
  plasma insulin levels: increased
[2]; after 12 weeks, high fat fed mice
  glucose levels: lower
[2]; high fat diet vs vehicle
  food/water intake: slight increase
[2]; high fat fed mice
  glucose tolerance: improves glucose tolerance
  percentage of change in body, organ and adipose tissue weight compared to chow diet: reduced percentage change
[2]; high fat fed mice vs vehicle
  blood glucose: lower
  heart rate: lower heart rate
  liver enzymes (LDH, ASAT, ALAT): lower
  plasma lipids (total cholesterol, HDL-chol, LDL-chol, triglycerides): lower
[2]; high fat fed mice vs vehicle, at about 12 minutes
  insulin levels after a test meal: peaked to higher levels
[2]; high fat fed mice, 16 weeks, vs vehicle
  body weight gain: less weight gain
[3]
  CMC […] Na+: 1.4 mM
  STCMC (surface tension at CMC): 50.1 Dyne/cm
NCI-H716 cells; NCI-H716
  ATP production: increased ATP production in a cAMP-dependent manner
  calcium influx: robustly increased calcium influx
NCI-H716 cells; NCI-H716, with glucose
  GLP-1 release: rise in GLP-1 release
